From ChEMBL document CHEMBL4613266, “Discovery and Structure Relationships of Salicylanilide Derivatives as Potent, Non-acidic P2X1 Receptor Antagonists” (J Med Chem, 2020) come the findings set out here.

What all share (assay type): cell-based
Assay [1] deals with T1, P2X purinoceptor 4 (Homo sapiens, UniProt Q99571).
T1 sequence (Q99571 whole entry): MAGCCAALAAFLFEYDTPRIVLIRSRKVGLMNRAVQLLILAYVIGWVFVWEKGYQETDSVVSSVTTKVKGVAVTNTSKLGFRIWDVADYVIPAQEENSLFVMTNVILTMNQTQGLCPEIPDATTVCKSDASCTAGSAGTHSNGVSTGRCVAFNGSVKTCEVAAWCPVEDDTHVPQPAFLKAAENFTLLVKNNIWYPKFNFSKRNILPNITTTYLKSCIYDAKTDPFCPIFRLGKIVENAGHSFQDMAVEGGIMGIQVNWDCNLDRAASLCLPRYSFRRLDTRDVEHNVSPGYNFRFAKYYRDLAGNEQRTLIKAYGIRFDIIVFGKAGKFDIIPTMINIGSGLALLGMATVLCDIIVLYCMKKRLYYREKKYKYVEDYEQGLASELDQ
Briefly: Antagonist activity at human P2X4 receptor expressed in human 1321N1 cells assessed as inhibition of ATP-induced cytosolic calcium influx preincubated for 30 mins followed by ATP addition by Fluo-4 AM dye-based fluorescence assay.

For assay [2], the target named is T2, P2X purinoceptor 1 (Homo sapiens) (UniProt P51575).
T2 sequence (whole entry): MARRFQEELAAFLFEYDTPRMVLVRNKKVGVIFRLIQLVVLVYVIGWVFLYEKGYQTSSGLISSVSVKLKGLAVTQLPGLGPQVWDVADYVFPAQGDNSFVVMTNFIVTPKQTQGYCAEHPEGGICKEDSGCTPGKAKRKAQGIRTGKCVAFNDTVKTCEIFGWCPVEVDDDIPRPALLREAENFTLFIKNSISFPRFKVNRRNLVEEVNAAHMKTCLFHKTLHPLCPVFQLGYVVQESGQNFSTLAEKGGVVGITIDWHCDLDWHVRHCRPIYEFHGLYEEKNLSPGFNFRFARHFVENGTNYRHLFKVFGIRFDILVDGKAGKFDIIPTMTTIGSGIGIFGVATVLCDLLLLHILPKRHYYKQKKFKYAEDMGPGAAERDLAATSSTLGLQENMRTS
The assay is described as follows: Antagonist activity at non-desensitizing human P2X1 receptor ( P2X2/P2X1 chimera) expressed in human 1321N1 cells assessed as inhibition of ATP-induced calcium influx at 10 uM pre-incubated for 30 mins before ATP stimulation by FLIPR assay relative to control.

In assay [3] the target is T3, P2X purinoceptor 3 (Homo sapiens) (UniProt P56373).
T3 sequence (whole entry): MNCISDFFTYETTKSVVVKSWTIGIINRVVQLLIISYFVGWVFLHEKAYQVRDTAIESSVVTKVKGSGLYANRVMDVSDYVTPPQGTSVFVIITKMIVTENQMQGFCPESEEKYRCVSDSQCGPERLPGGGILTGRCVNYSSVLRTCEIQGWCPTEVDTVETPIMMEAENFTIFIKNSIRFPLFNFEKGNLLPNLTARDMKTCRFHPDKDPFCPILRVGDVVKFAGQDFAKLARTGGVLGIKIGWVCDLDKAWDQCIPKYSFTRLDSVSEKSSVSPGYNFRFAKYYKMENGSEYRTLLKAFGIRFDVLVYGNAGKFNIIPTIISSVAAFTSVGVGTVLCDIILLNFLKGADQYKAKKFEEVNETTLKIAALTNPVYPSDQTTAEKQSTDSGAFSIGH
Briefly: Antagonist activity at human P2X3 receptor expressed in human 1321N1 cells assessed as inhibition of ATP-induced cytosolic calcium influx at 10 uM preincubated for 30 mins followed by ATP addition by Fluo-4 AM dye-based fluorescence assay relative to control.

Assay [4] addresses P2X purinoceptor 1 (Homo sapiens, UniProt P51575). Briefly: Antagonist activity at non-desensitizing human P2X1 receptor ( P2X2/P2X1 chimera) expressed in human 1321N1 cells assessed as inhibition of ATP-induced calcium influx pre-incubated for 30 mins before ATP stimulation by FLIPR assay relative to control.
Assay [5] has as its target T4, P2X purinoceptor 7 (Homo sapiens, UniProt Q99572).
T4 sequence (Q99572 whole entry): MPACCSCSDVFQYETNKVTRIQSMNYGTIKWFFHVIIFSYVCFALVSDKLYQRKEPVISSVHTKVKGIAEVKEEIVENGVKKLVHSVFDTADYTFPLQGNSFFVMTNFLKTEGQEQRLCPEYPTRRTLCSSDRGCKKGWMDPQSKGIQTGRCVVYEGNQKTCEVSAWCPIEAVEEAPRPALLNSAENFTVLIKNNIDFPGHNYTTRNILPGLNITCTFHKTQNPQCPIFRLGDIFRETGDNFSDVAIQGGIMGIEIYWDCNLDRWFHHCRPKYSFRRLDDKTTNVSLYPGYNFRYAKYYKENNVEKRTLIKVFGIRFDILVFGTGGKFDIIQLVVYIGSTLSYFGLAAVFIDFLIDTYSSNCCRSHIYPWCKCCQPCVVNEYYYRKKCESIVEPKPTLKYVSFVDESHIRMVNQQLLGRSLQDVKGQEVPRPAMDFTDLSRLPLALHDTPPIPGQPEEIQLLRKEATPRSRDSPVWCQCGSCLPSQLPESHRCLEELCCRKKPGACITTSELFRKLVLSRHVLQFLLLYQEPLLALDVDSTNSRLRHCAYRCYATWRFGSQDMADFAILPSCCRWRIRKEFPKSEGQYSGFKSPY
Briefly: Antagonist activity at human P2X7 receptor expressed in human 1321N1 cells assessed as inhibition of ATP-induced cytosolic calcium influx preincubated for 30 mins followed by ATP addition by Fluo-4 AM dye-based fluorescence assay.

The target of assay [6] is T5, P2X purinoceptor 3 (Homo sapiens, UniProt P56373).
T5 sequence (P56373 whole entry): T3 sequence (whole entry)
The assay is described as follows: Antagonist activity at human P2X3 receptor expressed in human 1321N1 cells assessed as inhibition of ATP-induced cytosolic calcium influx preincubated for 30 mins followed by ATP addition by Fluo-4 AM dye-based fluorescence assay.

Assay [7] has as its target T6, P2X purinoceptor 2 (Homo sapiens) (UniProt Q9UBL9).
T6 sequence (whole entry): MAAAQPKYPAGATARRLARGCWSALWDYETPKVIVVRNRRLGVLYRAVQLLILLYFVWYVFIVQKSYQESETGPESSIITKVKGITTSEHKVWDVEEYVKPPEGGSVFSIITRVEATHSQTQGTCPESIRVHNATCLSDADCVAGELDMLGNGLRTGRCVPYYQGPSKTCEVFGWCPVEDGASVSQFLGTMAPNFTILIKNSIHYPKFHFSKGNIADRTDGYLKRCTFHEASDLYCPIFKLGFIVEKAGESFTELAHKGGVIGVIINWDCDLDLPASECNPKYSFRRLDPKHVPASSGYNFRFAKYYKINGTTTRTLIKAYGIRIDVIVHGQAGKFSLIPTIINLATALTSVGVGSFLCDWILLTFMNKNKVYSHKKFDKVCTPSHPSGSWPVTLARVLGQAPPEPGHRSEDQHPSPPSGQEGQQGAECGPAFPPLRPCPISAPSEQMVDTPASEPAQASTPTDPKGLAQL
Briefly: Antagonist activity at human P2X2 receptor expressed in human 1321N1 cells assessed as inhibition of ATP-induced cytosolic calcium influx at 10 uM preincubated for 30 mins followed by ATP addition by Fluo-4 AM dye-based fluorescence assay relative to control.

For assay [8], the target named is T7, P2X purinoceptor 2 (Homo sapiens, UniProt Q9UBL9).
T7 sequence (Q9UBL9 whole entry): T6 sequence (whole entry)
Briefly: Antagonist activity at human P2X2 receptor expressed in human 1321N1 cells assessed as inhibition of ATP-induced cytosolic calcium influx preincubated for 30 mins followed by ATP addition by Fluo-4 AM dye-based fluorescence assay.

Assay [9] deals with T2, P2X purinoceptor 1 (Homo sapiens). The assay is described as follows: Antagonist activity at non-desensitizing human P2X1 receptor ( P2X2/P2X1 chimera) expressed in human 1321N1 cells assessed as inhibition of ATP-induced calcium influx at 1 uM pre-incubated for 30 mins before ATP stimulation by FLIPR assay relative to control.
The target is the same in assay [10]. Briefly: Antagonist activity at non-desensitizing human P2X1 receptor ( P2X2/P2X1 chimera) expressed in human 1321N1 cells assessed as inhibition of ATP-induced calcium influx at 100 uM pre-incubated for 30 mins before ATP stimulation by FLIPR assay relative to control.
For assay [11] the target is unchanged. Briefly: Antagonist activity P2X1 receptor in human platelets assessed as inhibition of ADP-induced platelet aggregation pre-incubated for 30 mins before ADP stimulation by aggregometry relative to control.
Assay [12] shares this target. The assay is described as follows: Antagonist activity P2X1 receptor in Apyrase pre-treated human platelets assessed as inhibition of TRAP6-induced platelet aggregation pre-incubated for 30 mins before TRAP6 stimulation by aggregometry relative to control.

For the compound `O=C(Nc1cc(C(F)(F)F)cc(C(F)(F)F)c1)c1ccccc1O`, the IC50 in [1] is 155 nM; in assay [4] it was 76.9 nM; in assay [5] it was 315 nM; in assay [6], more than 10000 nM; in assay [8], more than 10000 nM. For the same compound, the inhibition in assay [2] was 79%; in assay [3] it was 30%; in assay [7], 15%.
Regarding `COc1ccc(Cl)cc1C(=O)Nc1cc(C(F)(F)F)cc(C(F)(F)F)c1`, in assay [4], the half-inhibitory concentration (IC50) is more than 1000 nM. The inhibition in assay [9] was determined as 17%.
`O=C(Nc1cccc(Cl)c1)c1cc(Cl)ccc1O`: the IC50 is 135 nM in assay [1]; 75.6 nM in assay [4]; 599 nM in assay [5]; more than 10000 nM in assay [6]; more than 10000 nM in assay [8]. The inhibition was 64% in [2], 3% in [3] and 0% in assay [7].
Take `O=C(Nc1cc(C(F)(F)F)cc(C(F)(F)F)c1)N1CCCc2cccc(O)c21`: the inhibition in [10] was 77%. In [4], the IC50 came to 10400 nM.
`O=C(Nc1cccc(C(F)(F)F)c1)c1cc(Cl)ccc1O`: the IC50 in [1] was 537 nM; in assay [4], 91 nM; in assay [5] it was 6320 nM; in [6] it was more than 10000 nM; in assay [8] it was more than 10000 nM. For the same compound, the figures for the inhibition in assay [2], in [3] and in [7] were 75%, 4% and 5%, respectively.
In the case of `O=C(Nc1ccc(Cl)c([N+](=O)[O-])c1)c1cc(Cl)ccc1O`, in assay [10], the inhibition was 80%. In addition, in assay [4], the IC50 is 13500 nM.
As to `O=C(Nc1cc(Cl)cc(Cl)c1)c1cc(Cl)ccc1O`, the IC50 is 712 nM in assay [1]; 29.3 nM in [4]; 70.4 nM in assay [5]; more than 10000 nM in assay [6]; more than 10000 nM in assay [8]. Also, the inhibition was 56% in [2]; 5% in assay [3]; 26% in assay [11]; 13% in [12]; -5% in [7].
Turning to `O=C(Nc1cc([N+](=O)[O-])cc(C(F)(F)F)c1)c1cc(Cl)ccc1O`, the IC50 is 42.6 nM in assay [1]; 31.6 nM in assay [4]; 143 nM in assay [5]; more than 10000 nM in assay [6]; more than 10000 nM in [8]. The inhibition in assay [2] amounted to 81%; in [3], 16%; in assay [7], 5%.
For `O=C(Nc1cc([N+](=O)[O-])cc(C(F)(F)F)c1)c1cccc(Cl)c1O`, the inhibition in [10] was 83%. The IC50 in assay [4] amounted to 219 nM.
In the case of `N#Cc1cccc(NC(=O)c2cc(Cl)ccc2O)c1`, the IC50 in assay [4] came to 522 nM. The inhibition in [9] came to 60%.
As to `O=C(Nc1cc(C(F)(F)F)cc(C(F)(F)F)c1)c1ccccc1`, the values for the inhibition in assay [2] and in [11] were 79% and 47%, respectively. Besides, the IC50 in assay [4] worked out at 2220 nM.
Regarding `O=C(Nc1cc(C(F)(F)F)cc(C(F)(F)F)c1)c1cccc(Cl)c1O`, the IC50 in assay [1] is 48.8 nM; in assay [4], 58 nM; in [5], 177 nM; in [6] it was more than 10000 nM; in assay [8], more than 10000 nM. The values for the inhibition in [2], in [3] and in [7] were 83%, 28% and 13%, respectively.
For `O=C(Nc1cccc(OC(F)(F)F)c1)c1cc(Cl)ccc1O`, in assay [10], the inhibition was determined as 100%. Moreover, in assay [4], the IC50 was 7620 nM.
Turning to `O=S(=O)(Nc1cc(C(F)(F)F)cc(C(F)(F)F)c1)c1cc(Cl)ccc1O`, the values for the inhibition in [2], in [11] and in assay [12] were 80%, 27% and 8%, respectively. The IC50 in assay [4] was 439 nM.
With `O=C(Nc1cccc(Br)c1)c1ccccc1O`, in assay [10], the inhibition came to 98%. In addition, the IC50 in assay [4] is 2690 nM.
With `O=C(Nc1cc(C(F)(F)F)cc(C(F)(F)F)c1)c1ccc(Cl)cc1O`, the IC50 in assay [1] is 209 nM; in [4], 23.1 nM; in assay [5] it was 196 nM; in [6], more than 10000 nM; in assay [8], more than 10000 nM. For the same compound, the values for the inhibition in [2], in assay [3] and in assay [7] were 59%, 2% and -5%, respectively.

As usually defined, the IC50 is the midpoint of a concentration-inhibition curve. As a reminder, the inhibition is the relative decrease from the control value, in per cent.
